Assay results taken from patent US8263606B2 (Xenon Pharmaceuticals Inc., priority 2008, dated 2012).

Legend:
sodium channel = test: Guanidine influx assay (14C-guanidine radiotracer flux, in vitro); format: cell-based, human or rat; conditions: guanidine influx assay using a known cell line that expresses a sodium channel
Procedure, shortened: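 Sodium channel block is measured as reduced 14C-guanidine uptake in cells stably expressing human or rat channels, stimulated with aconitine. Potency is given as IC50 from a four-parameter curve.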

CYP3A4 = CYP3A4 (Homo sapiens, UniProt P08684); test: Cytochrome P450 (CYP450) Inhibition Assay, CYP3A4 (Vivid fluorescence, BOMCC substrate); conditions: human, P450 Baculosomes (recombinant CYP3A4), probe BOMCC (Vivid substrate)
Sequence of CYP3A4 (P08684 whole entry): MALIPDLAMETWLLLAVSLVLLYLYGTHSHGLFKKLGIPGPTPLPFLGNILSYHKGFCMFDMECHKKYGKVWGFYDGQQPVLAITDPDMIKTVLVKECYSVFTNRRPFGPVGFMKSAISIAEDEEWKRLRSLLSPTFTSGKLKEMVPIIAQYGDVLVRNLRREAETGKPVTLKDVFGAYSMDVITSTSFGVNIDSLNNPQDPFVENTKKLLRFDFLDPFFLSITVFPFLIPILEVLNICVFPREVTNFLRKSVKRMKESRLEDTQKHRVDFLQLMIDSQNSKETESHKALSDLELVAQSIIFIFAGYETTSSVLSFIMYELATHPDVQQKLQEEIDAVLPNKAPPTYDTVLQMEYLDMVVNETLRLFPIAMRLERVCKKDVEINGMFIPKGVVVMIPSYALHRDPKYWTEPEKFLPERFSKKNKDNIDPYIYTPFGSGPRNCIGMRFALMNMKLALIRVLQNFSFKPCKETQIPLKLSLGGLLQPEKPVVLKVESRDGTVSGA

| melting point | IC50 (sodium channel) | inhibition at 10 µM (CYP3A4) | IC50 (sodium channel; activity level class) | Compound |
| --- | --- | --- | --- | --- |
| 167 to 168 °C | 100 to 1000 nM | > 50% |  | O=C(NCc1cccs1)c1ccc(CN2C(=O)C3(COc4cc5c(cc43)CCO5)c3ccccc32)cc1 (stereo not drawn) [Example 12.38, 4-[(2′-oxo-5,6-dihydrospiro[benzo[1,2-b:5,4-b′]difuran-3,3′-indol]-1′(2′H)-yl)methyl]-N-(thiophen-2-ylmethyl)benzamide] |
| 72 to 73 °C | 100 to 1000 nM | > 50% |  | COCCNC(=O)c1cccc(CN2C(=O)C3(COc4cc5c(cc43)CCO5)c3ccccc32)c1 (stereo not drawn) [Example 12.1, N-(2-methoxyethyl)-3-[(2′-oxo-5,6-dihydrospiro[benzo[1,2-b:5,4-b′]difuran-3,3′-indol]-1′(2′H)-yl)methyl]benzamide] |
| 223 to 225 °C | 100 to 1000 nM | > 50% |  | CN(C)c1ccc(-c2cccc3c2C2(COc4cc5c(cc42)CCO5)C(=O)N3Cc2ccc(C(F)(F)F)o2)cn1 (stereo not drawn) [Example 16.11, 4′-[6-(dimethylamino)pyridin-3-yl]-1′-{[5-(trifluoromethyl)furan-2-yl]methyl}-5,6-dihydrospiro[benzo[1,2-b:5,4-b′]difuran-3,3′-indol]-2′(1′H)-one] |
| 251 to 253 °C | 1000 to 10000 nM | > 50% |  | Cc1cccc(NC(=O)CN2C(=O)C3(COc4cc5c(cc43)CCO5)c3ccccc32)c1C (stereo not drawn) [Example 12.55, N-(2,3-dimethylphenyl)-2-(2′-oxo-5,6-dihydrospiro[benzo[1,2-b:5,4-b′]difuran-3,3′-indol]-1′(2′H)-yl)acetamide] |
| 144 to 145 °C | 1 to 100 nM | > 50% |  | CN1C(=O)[C@@]2(COc3cc4c(cc32)OCO4)c2c(-c3ccoc3)cccc21 [Example 16.61, (7S)-4′-furan-3-yl-1′-methylspiro[furo[2,3-f][1,3]benzodioxole-7,3′-indol]-2′(1′H)-one] |
| > 230 °C | ≥ 10000 nM | < 50% |  | CCc1ccc(NC(=O)c2ccccc2CN2C(=O)C3(COc4cc5c(cc43)CCO5)c3ccccc32)cc1 (stereo not drawn) [Example 12.8, N-(4-ethylphenyl)-2-[(2′-oxo-5,6-dihydrospiro[benzo[1,2-b:5,4-b′]difuran-3,3′-indol]-1′(2′H)-yl)methyl]benzamide] |
| 65 to 70 °C | 100 to 1000 nM | > 50% |  | O=C(NCCCN1C(=O)C2(COc3cc4c(cc32)CCO4)c2ccccc21)c1ccccc1OC(F)(F)F (stereo not drawn) [Example 13.11, N-[3-(2′-oxo-5,6-dihydrospiro[benzo[1,2-b:5,4-b′]difuran-3,3′-indol]-1′(2′H)-yl)propyl]-2-(trifluoromethoxy)benzamide] |
| 204 to 206 °C | 100 to 1000 nM | < 50% |  | O=C1N(Cc2ccc(N3CCOCC3)cn2)c2ccccc2C12COc1cc3c(cc12)OCCO3 (stereo not drawn) [Example 33.3, 1′-[(5-morpholin-4-ylpyridin-2-yl)methyl]-2,3-dihydrospiro[furo[2,3-g][1,4]benzodioxine-8,3′-indol]-2′(1′H)-one] |
| 196 to 197 °C | 1 to 100 nM | > 50% |  | CN(C)c1cccc(CN2C(=O)C3(COc4cc5c(cc43)OCCO5)c3ccccc32)n1 (stereo not drawn) [Example 32.2, 1-{[6-(dimethylamino)pyridin-2-yl]methyl}-2,3-dihydrospiro[furo[2,3-g][1,4]benzodioxine-8,3′-indol]-2′(1′H)-one] |

Continued, compound first:

| Compound | melting point | IC50 (sodium channel) | inhibition at 10 µM (CYP3A4) | IC50 (sodium channel; activity level class) |
| --- | --- | --- | --- | --- |
| CC(C)CCN1C(=O)C2(COc3cc4c(cc32)OCCO4)c2c1ccc1ncsc21 (stereo not drawn) [Example 2.24, 6′-isopentyl-3,7-dihydro-2H-spiro[benzofuro[5,6-b][1,4]dioxine-8,8′-thiazolo[5,4-e]indol]-7′(6′H)-one] | 169 to 171 °C |  | > 50% | 1 to 100 nM |
| COc1ccc(CN2C(=O)C3(COc4cc5onc(N)c5cc43)c3ccccc32)cc1 (stereo not drawn) [Example 44, 3-amino-1′-(4-methoxybenzyl)spiro[furo[3,2-f][1,2]benzisoxazole-5,3′-indol]-2′(1′H)-one] | 214 to 216 °C | 100 to 1000 nM | > 50% |  |
| CC(C)c1nc(CN2C(=O)C3(COc4cc5c(cc43)OCO5)c3c(Cl)cccc32)cs1 (stereo not drawn) [Example 4.91, 4′-chloro-1′-[(2-isopropyl-1,3-thiazol-4-yl)methyl]spiro[furo[2,3-f][1,3]benzodioxole-7,3′-indol]-2′(1′H)-one] | 147 to 148 °C |  | > 50% | 1 to 100 nM |
| O=C1N(Cc2ccc(OCc3ccccc3)cn2)c2ccccc2C12COc1ccc3nonc3c12 (stereo not drawn) [Example 9.67, 1-{[5-(benzyloxy)pyridin-2-yl]methyl}spiro[furo[3,2-e][2,1,3]benzoxadiazole-8,3′-indol]-2′(1′H)-one] | 209 to 212 °C | 100 to 1000 nM | < 50% |  |
| N#Cc1cccc(CN2C(=O)C3(COc4cc5c(cc43)OCCO5)c3ccccc32)c1 (stereo not drawn) [Example 4.94, 3-[(2′-oxo-2,3-dihydrospiro[furo[2,3-g][1,4]benzodioxine-8,3′-indol]-1′(2′H)-yl)methyl]benzonitrile] | 173 to 178 °C |  | > 50% | 1 to 100 nM |
| Cc1cc2c(cc1C)C1(CO2)C(=O)N(CC2CCOCC2)c2ccccc21 (stereo not drawn) [Example 9.27, 5,6-dimethyl-1′-(tetrahydro-2H-pyran-4-ylmethyl)spiro[1-benzofuran-3,3′-indol]-2′(1′H)-one] | 199 to 201 °C |  | > 50% | 1000 to 10000 nM |
| N#Cc1cccc(CN2C(=O)[C@@]3(COc4cc5c(cc43)OCCO5)c3ccccc32)c1 [Example 4.106, 3-{[(8S)-2′-oxo-2,3-dihydrospiro[furo[2,3-g][1,4]benzodioxine-8,3′-indol]-1′(2′H)-yl]methyl}benzonitrile] | 94 to 96 °C |  | < 50% | 1 to 100 nM |
| O=C1N(Cc2cnccn2)c2ccccc2[C@]12COc1cc3c(cc12)OCCO3 [Example 5.16, (8S)-1′-(pyrazin-2-ylmethyl)-2,3-dihydrospiro[furo[2,3-g][1,4]benzodioxine-8,3′-indol]-2′(1′H)-one] | 216 to 218 °C |  | < 50% | 1 to 100 nM |
| COc1ccc(CN2C(=O)C3(COc4cc5c(C)noc5cc43)c3ccccc32)cc1 (stereo not drawn) [Example 2.41, 1′-(4-methoxybenzyl)-3-methylspiro[furo[2,3-f][1,2]benzisoxazole-7,3′-indol]-2′(1′H)-one] | 183 to 184 °C |  | > 50% | 1000 to 10000 nM |
| O=C1N(Cc2nsc(Cl)n2)c2cccc(Cl)c2C12COc1cc3c(cc12)OCO3 (stereo not drawn) [Example 6.1, 4′-chloro-1′-[(5-chloro-1,2,4-thiadiazol-3-yl)methyl]spiro[furo[2,3-f][1,3]benzodioxole-7,3′-indol]-2′(1′H)-one] | 174 to 176 °C |  | > 50% | 1 to 100 nM |
| O=C1N(Cc2noc(C3CC3)n2)c2ccccc2C12COc1cc3c(cc12)OCO3 (stereo not drawn) [Example 11.24, 1′-[(5-cyclopropyl-1,2,4-oxadiazol-3-yl)methyl]spiro[furo[2,3-f][1,3]benzodioxole-7,3′-indol]-2′(1′H)-one] | 136 to 137 °C | 1 to 100 nM | > 50% |  |
| Cc1noc2cc3c(cc12)C1(CO3)C(=O)N(Cc2ccccc2C(F)(F)F)c2ccccc21 (stereo not drawn) [Example 9.41, 3-methyl-1′-[2-(trifluoromethyl)benzyl]spiro[furo[3,2-f][1,2]benzisoxazole-5,3′-indol]-2′(1′H)-one] | 192 to 194 °C |  | > 50% | 100 to 1000 nM |
| O=C1N(Cc2cccnc2)c2ccccc2C12COc1cc(F)c(F)cc12 (stereo not drawn) [Example 9.31, 5,6-difluoro-1′-(pyridin-3-ylmethyl)spiro[1-benzofuran-3,3′-indol]-2′(1′H)-one] | 175 to 177 °C |  | > 50% | 1000 to 10000 nM |
| N#Cc1cccc2c1N(Cc1ccc(Cl)s1)C(=O)C21COc2cc3c(cc21)OCO3 (stereo not drawn) [Example 4.87, 1′-[(5-chloro-2-thienyl)methyl]-2′-oxo-1′,2′-dihydrospiro[furo[2,3-f][1,3]benzodioxole-7,3′-indole]-7′-carbonitrile] | 192 to 193 °C |  | > 50% | 1 to 100 nM |
| O=C1N(Cc2ccccc2C(F)(F)F)c2ccccc2C12COc1cc3[nH]ncc3cc12 (stereo not drawn) [Example 46, 1′-[2-(trifluoromethyl)benzyl]-1H-spiro[furo[3,2-f]indazole-5,3′-indol]-2′(1′H)-one] | 124 to 126 °C | 1000 to 10000 nM | > 50% |  |
| Cn1c(CN2C(=O)C3(COc4cc5c(cc43)CCO5)c3ccccc32)nc2ccccc21 (stereo not drawn) [Example 9.12, 1′-[(1-methyl-1H-benzimidazol-2-yl)methyl]-5,6-dihydrospiro[benzo[1,2-b:5,4-b′]difuran-3,3′-indol]-2′(1′H)-one] | 244 to 246 °C |  | > 50% | 100 to 1000 nM |
| COc1ccc2c(c1)OCC21C(=O)N(Cc2cccnc2)c2ccccc21 (stereo not drawn) [Example 9.34, 6-methoxy-1′-(pyridin-3-ylmethyl)spiro[1-benzofuran-3,3′-indol]-2′(1′H)-one] | 164 to 165 °C |  | > 50% | 1 to 100 nM |
| COCCOCCN1C(=O)C2(COc3cc4c(cc32)OCCO4)c2c(OC)cc(OC)cc21 (stereo not drawn) [Example 9.73, 4′,6′-dimethoxy-1′-[2-(2-methoxyethoxy)ethyl]-2,3-dihydrospiro[furo[2,3-g][1,4]benzodioxine-8,3′-indol]-2′(1′H)-one] | 158 to 160 °C | 1000 to 10000 nM | > 50% |  |
